Tests used:
[1] = system: MCF-7 cells; assay: Antiproliferative assay, MCF-7 cells, alamar Blue; assay type: cell-based
Description: MCF-7 cells were obtained from the American Type Culture Collection (ATCC, Rockville, Md.). Exponentially growing cells were plated (96-well plates) in MEM (minimal essential medium) containing NaHCO3, CCD (charcoal-coated dextran)-stripped 10% FCS (fetal calf serum), and glycine. Cultures were incubated at 37° C. for 1 day, then treated with target by replacing the medium with 100 μL MEM containing supplements and target (3 wells at each of 5 concentrations). The relative effect of each concentration was compared to that of β-estradiol (positive control) by the alamar Blue™ assay (Biosource International),in which the dye is reduced by cellular mitochondrial enzymes to a soluble fluorophore with an intensity directly proportional to cell number. After cultures were incubated with target, alamar Blue™ diluted to 20% in MEM was added (100 μL/well) and cells were incubated for about 4 h, until a color change indicated sufficient amounts of reduced dye for quantitation. Relative cell number was evaluated directly from the plates by fluorimetry (560 nm excitation, 590 nm detection) on a Millipore 2300 CytoFluor. The concentration at which 50% effectiveness is seen (EC50) was calculated from statistically significant, reproducible effects. Statistical analysis was performed using JMP software (SAS Institute).

[2] = system: estrogen receptor; conditions: cited from earlier work
[3] = concentration 10^-5 (unit not given)
[4] = concentration 10^-6 (unit not given)
[5] = concentration 10^-7 (unit not given)
[6] = concentration 10^-8 (unit not given)
[7] = concentration 10^-9 (unit not given)

Compound	% Inhibition [1, 3]	% Inhibition [1, 4]	% Inhibition [1, 5]	% Inhibition [1, 6]	% Inhibition [1, 7]	affinity for the estrogen receptor [2]
COc1cccc(N2N=Cc3cc(O)ccc3B2O)n1 [Compound 15, 1,2-dihydro-1,6-dihydroxy-2-(2-methoxy-6-pyridinyl)-2,3,1-benzodiazaborine]	62%	3%	0%	0%	0%	
CC/C(=C(\c1ccccc1)c1ccc(OCCN(C)C)cc1)c1ccccc1 [tamoxifen, reference compound]	95%	54%	29%	5%	0%	
Estrone and Estradiol-17β, 3-carboranylmethyl Ethers						0.5
OB1c2ccc(O)cc2C=NN1c1ccccn1 [Compound 11, 1,2-dihydro-1,6-dihydroxy-2-(6-pyridinyl)-2,3,1-benzodiazaborine]	55%	10%	8%	8%	5%	
O=C1OB2c3ccc(O)cc3C=NN2c2ccccc21 [Compound 4, 1,2-dihydro-1,6-dihydroxy-2-(2-carboxyphenyl)-2,3,1-benzodiazaborine lactone]	13%	4%	2%	6%	0%	
